pIC50: −log10 of the molar value. Active and inactive are the calls of the source.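 Rule for the calls: active = mean IC50 at or below 10 µM; inactive = the rest.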
Test system: H9c2 cardiomyocytes, H2O2 protection, ATPLite viability, 2 h
Assay: H2O2-induced H9c2 cell death suppression – ATPLite luminescence, set 2, dose response (AID 602211);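 note: potency is for protection so actives keep ATP signal up against peroxide killing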

| SMILES | pIC50 | IC50 |
| --- | --- | --- |
| O=C(NCC1CCCO1)C(c1ccc(F)cc1)N(C(=O)Cn1nnc(-c2ccc(F)cc2)n1)c1cccc(O)c1 (configuration not stated) | 5.35 |  |
| CC(=O)Nc1cc(-c2ccccc2)cn2c(-c3cccc(C(C)=O)c3)cnc12 | 5.06 |  |
| COc1cccc2cc(-c3cc(=O)oc4ccc(OCC(C)=O)cc34)oc12 | 5.49 |  |
| COc1ccc(CSc2nc3ccccc3c(=O)[nH]2)cc1F | 5.07 |  |
| O=C(Nc1nc(-c2cc(F)ccc2F)cs1)C1=NN(c2ccccc2)C(=O)CC1 | 5.20 |  |
| CCn1c(=O)cc(OCC(=O)Nc2ccccc2C#N)c2ccccc21 |  | 11.9 µM (inactive) |
| COc1cc2c(C#CCCO)c(-c3ccsc3)oc(=O)c2cc1OC | 5.69 |  |
| NC(=O)c1oc2ccccc2c1NC(=O)c1ccco1 |  | 21.4 µM (inactive) |
| COc1cc(/C=N/NC(=O)c2cccnc2)ccc1OS(=O)(=O)c1ccc(F)cc1 | 5.50 |  |
| CCN(C[C@H]1N[C@@](Cc2ccccc2)(C(=O)OC)[C@H]2C(=O)N(C)C(=O)[C@@H]12)S(=O)(=O)c1ccc(OC)cc1 |  | 21.1 µM (inactive) |
| COc1ccc(COc2cc(-c3cccc(OC)c3)nc3ccc(NC(=O)c4ccc(OC)cc4)cc23)cc1 | 5.62 |  |
| Cc1ccc(NC(=O)c2nc[nH]c2C(=O)NCCCNC(=O)c2[nH]cnc2C(=O)Nc2ccc(C)cc2)cc1 | 5.96 |  |
| COc1ccccc1NC(=O)c1cc(-c2cc(OC)c(OC)c(OC)c2)nc2ccccc12 | 5.54 |  |
| N#Cc1c(-c2ccco2)cc(-c2ccccn2)nc1N |  | 28.5 µM (inactive) |
| CC(C)CC(C(=O)NC1CCCCC1)N(Cc1cccs1)C(=O)c1snc(C(N)=O)c1N (configuration not stated) |  | 10.2 µM (inactive) |
| Clc1ccccc1-c1nc(N/N=C/c2cccnc2)c2ccccc2n1 | 5.14 |  |
| COc1cc(-c2cc(C(=O)OCC(=O)NC3CC3)c3ccccc3n2)cc(OC)c1OC | 5.40 |  |
| C[C@H](CO)N1C[C@H](C)[C@@H](CN(C)C(=O)Nc2ccc3c(c2)OCO3)Oc2c(NC(=O)Nc3ccc(C(F)(F)F)cc3)cccc2C1=O |  | 40.3 µM (inactive) |
| COc1cccc(-c2cnc3c(NC(C)=O)cc(-c4cc(OC)c(OC)c(OC)c4)cn23)c1 | 5.49 |  |
| CCN(C[C@H]1N[C@@](CC)(C(=O)OC)[C@H]2C(=O)N(Cc3ccccc3)C(=O)[C@@H]12)C(=O)c1ccc(C(C)(C)C)cc1 |  | > 79 µM (inactive) |
| CCOC(=O)C1CCN(C(c2cc3c(C)ccc(C)c3[nH]c2=O)c2nnnn2C2CCCCC2)CC1 (configuration not stated) |  | > 79 µM (inactive) |
| Cc1cccc(NC(=O)c2nc[nH]c2C(=O)NCCCCCCNC(=O)c2[nH]cnc2C(=O)Nc2cccc(C)c2)c1 |  | > 79 µM (inactive) |
| Cn1c(=O)n(CCc2ccccc2)c(=O)c2c1nc1n2CCCN1Cc1ccccc1 |  | > 79 µM (inactive) |

| SMILES | pIC50 | IC50 |
| --- | --- | --- |
| COc1cc(-c2cc3nc(NCCOc4ccccc4)ccn3n2)cc(OC)c1OC | 5.15 |  |
| Cc1ccc2nc(-c3ccccc3)cc(C(=O)NNC(=O)c3csc(N4CCOCC4)n3)c2c1 |  | 15 µM (inactive) |
| Cn1c(C(=O)NCCc2ccsc2)cc2c(=O)n(C)c3ccccc3c21 | 5.32 |  |
| COc1cc(C(=O)N/N=C/c2sc(N3CCOCC3)nc2-c2ccccc2)cc(OC)c1OC |  | 16.9 µM (inactive) |
| O=c1oc2ccc3ccccc3c2cc1-c1nnc(-c2ccccc2)o1 |  | 17.5 µM (inactive) |
| Cn1c(-n2c(CCCN3C(=O)c4ccccc4C3=O)nc3ccccc3c2=O)nc2ccccc21 |  | 11.6 µM (inactive) |
| Cc1cc(NC(=O)c2cccs2)cc(-c2nc3ncccc3o2)c1O | 5.42 |  |
| CC(C)(C)NC(=O)COC(=O)c1c2c(nc3ccccc13)CCC2 |  | 14.6 µM (inactive) |
| O=S(=O)(c1ccccc1)N1CCN(c2nc(-c3cccnc3)nc3ccccc23)CC1 | 5.34 |  |
| Cn1c(=O)c2[nH]c(NN=Cc3cccc(Br)c3)nc2n(C)c1=O | 5.36 |  |
| c1cc2[nH]snc2c2nc(C3CC3)nc12 | 5.12 |  |
| O=C(N/N=C/c1ccccn1)c1ccc(NC(=O)c2cccc([N+](=O)[O-])c2)cc1 | 5.13 |  |
| COc1cccc(-c2nn(-c3ccccc3)cc2C(=O)Nc2nccs2)c1 |  | 12.8 µM (inactive) |
| O=C(COc1cccc(NC(=O)c2cccc([N+](=O)[O-])c2)c1)c1ccc(F)cc1 | 5.03 |  |
| CNC(=O)c1ccc(-c2sc3nc(N4CCOCC4)c4c(c3c2N)CCCC4)o1 |  | 11.6 µM (inactive) |
| O=C(c1ccccc1)c1ccc2nc(N3CCN(C(=O)c4ccco4)CC3)c3nncn3c2c1 | 5.03 |  |
| COc1ccc(C=NNc2nc3c([nH]2)c(=O)n(C)c(=O)n3C)cc1 | 5.24 |  |
| CC(=O)Nc1cc(-c2ccc(C(=O)NC3CC3)cc2)cn2c(-c3cccc(C(C)=O)c3)cnc12 | 5.01 |  |
| CCOC(=O)c1ccc(-c2ccc(/C=C(\C#N)C(=O)NCC3CCCO3)o2)cc1 (configuration not stated) |  | > 79 µM (inactive) |
| Cc1ccc(C(=O)Nc2cccc(C(F)(F)F)c2)cc1NC(=O)c1csc(-c2ccncc2)n1 | 5.26 |  |
| COc1cc(-c2cc(NC=O)c3ncc(-c4ccc(C(C)=O)cc4)n3c2)cc(OC)c1OC | 5.45 |  |
| COc1cc(OC)cc(C(=O)Nc2ccc(-c3nc4ccccc4o3)cc2)c1 |  | > 79 µM (inactive) |
| O=C(N/N=C/c1ccccn1)c1[nH]c2ccc([N+](=O)[O-])cc2c1-c1ccccc1 | 5.63 |  |

| SMILES | pIC50 | IC50 |
| --- | --- | --- |
| CC(=O)NCc1ccc(-c2csc(NC(=O)CCc3nc4ccccc4c(=O)[nH]3)n2)s1 | 5.37 |  |
| CC1(C)CC(=O)C2=C(C1)N(CCN1CCOCC1)C1=C(C(=O)CC(C)(C)C1)C2c1ccc(Cl)cc1 | 5.01 |  |
| NC(=O)c1nsc(C(=O)N(CCc2ccccc2)C(C(=O)NC2CCCC2)c2ccco2)c1N (configuration not stated) |  | 11.3 µM (inactive) |
| Fc1ccc(CSc2ccc3nnc(-c4cccnc4)n3n2)cc1 | 5.21 |  |
| CCOC(=O)c1cc2c(=O)n3cccc(C)c3nc2n(CCCOC)c1=NC(=O)c1cccnc1 | 5.54 |  |
| CC12CCC3C(CCC4CC(O)CCC43C)C1CC(O)C2 (configuration not stated) | 5.47 |  |
| COc1ccc(N(Cc2cc3cc(OC)ccc3[nH]c2=O)C(=O)c2cccnc2)cc1 |  | 19.1 µM (inactive) |
| COc1ccc(OCC(O)Cn2c(Nc3cccc(C)c3)nc3c2c(=O)n(C)c(=O)n3C)cc1 (configuration not stated) |  | 12.9 µM (inactive) |
| COc1cc(-c2cc(C(=O)N3CCN(c4ccccn4)CC3)c3ccccc3n2)cc(OC)c1OC | 5.45 |  |
| CCOc1ccccc1Nc1nnc(SCc2nnc(-c3cc(OC)c(OC)c(OC)c3)o2)s1 | 5.05 |  |
| O=C(CNC(=O)c1[nH]cnc1C(=O)NC(c1ccccc1)c1ccccc1)OCc1ccccc1 |  | 10.1 µM (inactive) |
| CS(=O)(=O)Nc1cccc(NC(=O)c2cccc3c(-c4cccc(C(N)=O)c4)coc23)c1 | 5.44 |  |
| c1ccc(-c2nc(-n3ccnc3)nc(-n3ccnc3)n2)cc1 | 5.38 |  |
| CCOc1cc(/C=C/c2ccc3cccc([N+](=O)[O-])c3n2)ccc1OCC(=O)N(C)C | 5.04 |  |
| CC(=O)Nc1ccc(Nc2nc(-c3sc(NC(C)=O)nc3C)cs2)cc1 |  | 12.2 µM (inactive) |
| CCOC(=O)c1c(C)[nH]c(O)c1C=Nc1ccc(Cl)cc1 |  | 34.4 µM (inactive) |
| CCOC(=O)C1=C(CC)Nc2ccccc2N=C1NC(=O)c1ccc(S(=O)(=O)N(C)C)cc1 | 5.32 |  |
| COc1cc2nc(C3CCC3)nc(N3CCN(c4ccccn4)CC3)c2cc1OC |  | > 79 µM (inactive) |
| COc1ccc2occ(C(=O)c3coc4ccc(O)c(CN(C)C)c34)c2c1 | 5.36 |  |
| CCOc1ccc(C(C(=O)NCC2CCCO2)N(C(=O)c2snc(C(N)=O)c2N)c2ccccc2F)cc1 (configuration not stated) | 5.44 |  |
| Nc1c(C(=O)NC2CC2)c2nc3ccccc3nc2n1-c1ccc2c(c1)OCO2 | 5.35 |  |

— PubChem BioAssay AID602211 (Sanford-Burnham Center for Chemical Genomics, 2012)
